According to patent publication US10793525B2, “13-cis-RAMBA retinamides that degrade MNKs for treating cancer” (UNIVERSITY OF MARYLAND, BALTIMORE, priority 2014, dated 2020):

How the values were obtained:
[1] = system: MCF-7 human breast cancer cells; test: MTT cell proliferation assay, MCF-7; assay type: cell-based; conditions: Homo sapiens, MCF7; MCF-7 cells, MTT, SEM < 10%; read-out: GI50s MCF-7
[2] = system: MDA-MB-231 human breast cancer cells; test: MTT cell proliferation assay, MDA-MB-231; assay type: cell-based; conditions: MDA-MB-231 cells, SEM < 10%, read-out: GI50s MDA-MB-231
[3] = system: MDA-MB-468 human breast cancer cells; test: MTT cell proliferation assay, MDA-MB-468; assay type: cell-based; conditions: MDA-MB-468 cells, SEM < 10%, read-out: GI50s MDA-MB-468
[4] = system: SKBR-3 human breast cancer cells; test: MTT cell proliferation assay, SKBR-3; assay type: cell-based; conditions: SK-BR-3, SKBR-3 cells, SEM < 10%, read-out: GI50s SKBR-3
[5] = system: LNCaP human prostate carcinoma cells; test: MTT cell proliferation assay, LNCaP; assay type: cell-based; conditions: SEM < 10%, read-out: GI50s LNCaP
From the text: (§1) MCF-7, MDA-MB-231, MDA-MB-468 and SKBR-3 human breast cancer cells and LNCaP, PC-3, and CWR22Rv1 human prostate carcinoma cells (American Type Culture Collection, Manassas, Va., USA) were maintained in RPMI 1640 media (Gibco-Life Technologies, Grand Island, N.Y., USA) supplemented with 10% fetal bovine serum and 1% penicillin/streptomycin. Western blotting was done as mentioned previously,^8, 13b using the following antibodies: AR, Bad, Bax, Bcl-2, eIF4E, Mnk1, Mnk-2, N-cadherin, PARP, peIF4E^ser209 purchased from Cell Signaling Technology, Danvers, Mass., USA. Anti-Mnk2 was purchased from Sigma-Aldrich and normal rabbit IgG, cyclin D1 was from Santa Cruz Biotechnology, CA, USA.
(§2) Cells were plated (2500 cells/well) in 96 well plates and treated with or without specified compounds as described previously.^8a, 12b
(§3) The clinically relevant retinoids, ATRA and 4-HPR and the Mnk inhibitor, cercosporamide were used as comparators in the assays.
(§4) The PC-3 cell line was the least sensitive to all the compounds tested.

[6] = system: CWR22Rv1 human prostate carcinoma cells; test: MTT cell proliferation assay, CWR22Rv1; assay type: cell-based; conditions: SEM < 10%, read-out: GI50s CWR22Rv1
From the text: as §1, §2, §3, §4

[7] = system: Mnk1 and 2, peIF4E, eIF4E and cPARP; test: Western blot of lysates from MCF-7, MDA-MB-231 and MDA-MB-468 cells; assay type: cell-based, human; conditions: MCF-7, MDA-MB-231, MDA-MB-468 cells, 24 hours
From the text: as §1
As we previously reported, the anti-proliferative effects of the 1st generation MNKDAs in BC cells was due to degradation of Mnk1/2 with subsequent depletion of peIF4E and induction of apoptosis.^8a To determine if these compounds modulate Mnk1/2 and related oncogenic proteins, the inventors performed western blot of lysates from MCF-7, MDA-MB-231 and MDA-MB-468 human breast cancer cells treated with Compounds 16, 20, and 22, or with vehicle (DMSO, negative control), or Compound 6 (positive control). Equal protein concentrations from MCF-7 (FIG. 3A), MDA-MB-231 (FIG. 3B) and MDA-MB-468 (FIG. 3C) cells treated for 24 hours with Compounds 16, 20 and 22 at the various concentrations as indicated and Compound 6 (20 μmol/L) were separated by SDS-PAGE and western blots probed with antibodies to Mnk1 and 2, peIF4E, eIF4E and cPARP. Vehicle treated cells were included as control and all blots were reprobed for GAPDH for loading control.

MDA-MB-231 cells = test: Wound-healing assay, MDA-MB-231 cell migration; assay type: cell-based, human; conditions: 5 μM, 24 h
Experimental: (§5) Wound healing assay and matrigel invasion assay were also conducted as described previously using highly metastatic PC-3 cells following treatment with 5 μM of RRs for 24 h.^8a,26
(§6) Based on previous studies with closely related compound,^8 the inhibitory effects of Compounds 16, 20 and 22 on cell migration were evaluated, using the human metastatic BC cell line, MDA-MB-231 by wound-healing assay. MDA-MB-231 cells (5×10^5 cells/well) were seeded on Boyden chamber, grown to confluence and scratches made at experimental tome zero. The cells were treated with indicated compounds (5 μM each) for 24 h. Representative photomicrographs of initial and final wounds are shown at 100× magnification. […] At 24 hours after cell monolayers were wounded, control cells had completely filled in the scratched area.

PC-3 cells = test: Wound-healing assay, PC-3 cell migration; assay type: cell-based, human; conditions: 5 μM, 24 hours
Experimental: as §5
as §6, with “PC” for “BC”, “PC-3” for “MDA-MB-231”, “hours.” for “h.”

LNCaP cells = test: MTT viability of LNCaP cells with AR and/or Mnk1 siRNA knockdown; assay type: cell-based, human
Experimental: siRNA (100 nM) was transfected into LNCaP cells using Lipofectamine® 2000 Transfection reagent (Invitrogen) as per manufacturer's protocol. Protein silencing was confirmed by immunoblot analysis. For cell growth assay experiments, transfection complex were removed after 18 h, cells were washed twice with PBS and replaced with growth medium. 24 h later drug was added and harvested after 72 h. For Western blot experiment, transfection complexes were washed off after 18 h and replaced with phenol free media for 24 h. Cells were then treated with 20 μM of VNLG-152 for an additional 24 h and cells were lysed using RIPA lysis buffer.^8b, 27 Luciferase assay was conducted in LNCaP cells using the Dual Luciferase kit (Promega) as described earlier.^8b, 13b
To confirm whether AR and Mnk1 are the major anti-cancer targets of these compounds on LNCaP cells, the percentage of cell survival in LNCaP cells was analyzed by MTT assay following transient transfection with AR siRNA and/or Mnk1 siRNA for 18 hours.

[8] = system: Mnk-1, peIF4E and their downstream targets; test: Molecular analysis of MDA-MB-231 tumors; assay type: in vivo; conditions: MDA-MB-231 tumors from treated mice
From the text: To assess their in vivo mode of action, we evaluated the effects of Compounds 20 and 22 on Mnk-1, peIF4E and their downstream targets.

[9] = system: fAR, AR-V7, Mnk-1, peIF4E and their downstream targets; test: Molecular analysis of CWR22Rv1 tumors; assay type: in vivo; conditions: CWR22Rv1 tumors from treated mice
From the text: To assess their in vivo mode of action, we evaluated the effects of Compound 20 on fAR, AR-V7, Mnk-1, peIF4E and their downstream targets.

CC1=C(/C=C/C(C)=C/C=C/C(C)=C\C(=O)Nc2cccc(F)c2)C(C)(C)CCC1n1ccnc1 (stereo not drawn) [Compound 20, (2Z,4E,6E,8E)-9-(3-(1H-imidazol-1-yl)-2,6,6-trimethylcyclohex-1-en-1-yl)-N-(3-fluorophenyl)-3,7-dimethylnona-2,4,6,8-tetraenamide]
IC50 [1]: 5.69 µM
IC50 [2]: 8.51 µM
IC50 [3]: 6.76 µM
IC50 [4]: 17 µM
IC50 [5]: 2.69 µM
IC50 [6]: 2.04 µM
expression of total eIF4E [7]: no noticeable effects
expressions of Mnk1, Mnk2 and peIF4E [7]: significantly and dose-dependently, reduced
formation of c-PARP (apoptosis) [7]: dose-dependent formation of c-PARP
migration of MDA-MB-231 cells (MDA-MB-231 cells): significantly inhibited migration
migration of PC-3 cells (PC-3 cells): significantly inhibited migration
cell viability, un-transfected LNCaP cells (LNCaP cells; 5 μM, 72 hours, MTT): robust reduction in cell viability
cell viability, LNCaP cells harboring AR or Mnk1 knockdown (LNCaP cells; 5 μM, compared to siRNA alone treated counterparts): sensible decrease in cell viability
cell viability, LNCaP cells with double knockdown of AR and Mnk1 (LNCaP cells; compared to cells co-treated with Mnk1 and AR siRNA): did not show any significant decrease in cell viability
Mnk1/2, peIF4E, cyclin D1 and Bcl-2 in tumors [8]: depletion
pro-apoptotic proteins Bad and Bax in tumors [8]: up-regulation
fAR, AR-V7, Mnk1/2, peIF4E, cyclin D1 and Bcl-2 in tumors [9]: depletion
pro-apoptotic protein Bad in tumors [9]: up-regulation
